Laboratory results published in patent US10294202B2, “Pyrrolidinones as herbicides” (FMC Corporation, priority 2013, dated 2019).

How the values were obtained:
ragweed = assay: Test A pre-/postemergence herbicide test; format: in vivo, Ambrosia elatior; conditions: for Plant response rating, Ragweed: 0 to 100 scale
Method in brief: (§1)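 Greenhouse pot test with pre- and postemergence application of surfactant-containing solvent formulations. Postemergence plants were 2–10 cm, one- to two-leaf stage. Response scored visually after ~10 days, 0 (no effect) to 100 (complete control).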

pigweed = assay: Test A pre-/postemergence herbicide test; format: in vivo, Amaranthus retroflexus; conditions: for Plant response rating, Pigweed: 0 to 100 scale
Method in brief: as §1

barnyardgrass [1] = assay: Test A pre-/postemergence herbicide test; format: in vivo, Echinochloa crus-galli; conditions: for Plant response rating, Barnyardgrass: 0 to 100 scale
Method in brief: as §1

kochia = assay: Test A pre-/postemergence herbicide test; format: in vivo, Kochia scoparia; conditions: for Plant response rating, Kochia: 0 to 100 scale
Method in brief: as §1

barnyardgrass [2] = assay: Test C flooded paddy test; format: in vivo, Echinochloa crus-galli; conditions: Flood
Method in brief: (§2)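 Ratings reflect visual comparison with controls on a 0–100 scale, where 100 is complete control. Compound is dosed into standing paddy water 3 cm deep over 2-leaf-stage plants, kept in the greenhouse 13 to 15 days.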

ryegrass, Italian = assay: Test A pre-/postemergence herbicide test; format: in vivo, Lolium multiflorum; conditions: for Plant response rating, Ryegrass, Italian: 0 to 100 scale
Method in brief: as §1

galium = assay: Test A postemergence herbicide test; format: in vivo, Galium aparine
Method in brief: (§3)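 Potted in loam soil/sand blend; postemergence application at 1–2 leaf stage (2–10 cm). Greenhouse ~10 d. Visual injury vs untreated, 0–100 scale; 100 = complete control.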

rice = assay: Test C flooded paddy test; format: in vivo, Oryza sativa; conditions: Flood
Method in brief: as §2

wheat = assay: Test A pre-/postemergence herbicide test; format: in vivo, Triticum aestivum; conditions: Postemergence
Method in brief: as §1

giant foxtail = assay: Test A pre-/postemergence herbicide test; format: in vivo, Setaria faberii; conditions: for Plant response rating, Foxtail, Giant: 0 to 100 scale
Method in brief: as §1

blackgrass = assay: Test A postemergence herbicide test; format: in vivo, Alopecurus myosuroides
Method in brief: as §3

ducksalad = assay: Test C flooded paddy test; format: in vivo, Heteranthera limosa; conditions: Flood
Method in brief: as §2

sedge, umbrella = assay: Test C flooded paddy test; format: in vivo, Cyperus difformis; conditions: Flood
Method in brief: as §2

corn = assay: Test A pre-/postemergence herbicide test; format: in vivo, Zea mays; conditions: Postemergence
Method in brief: as §1

[3] = 125 g ai/ha, visual rating, 0 no effect, 100 complete control, approximately 10 days, preemergence
[4] = Postemergence, 125 g ai/ha, 0 is no effect, 100 is complete control
[5] = preemergence, 500 g ai/ha, 0 is no effect and 100 is complete control
[6] = 125 g ai/ha, scale of 0 to 100 where 0 is no effect and 100 is complete control, 13 to 15 days
[7] = 250 g ai/ha, scale of 0 to 100 where 0 is no effect and 100 is complete control, 13 to 15 days
[8] = 125 g ai/ha, 0 to 100 scale, 0 is no effect, 100 is complete control

O=C1NCC(c2cccc(C(F)F)c2)C1C(=O)Nc1ccccc1C(F)(F)F (racemic) [Compound 212]
75: Plant response rating, Ducksalad (ducksalad; 500 g ai/ha, scale 0 to 100)
40: Plant response rating, Barnyardgrass (barnyardgrass [2]; 500 g ai/ha, scale 0 to 100) | Plant response rating, Blackgrass (blackgrass; [8])
70: Wheat plant response rating (0 to 100 scale, 0 is no effect, 100 is complete control) (wheat; 500 g ai/ha) | Plant response rating, Foxtail, Giant (giant foxtail; [3]) | Plant response rating, Ducksalad (ducksalad; [7])
0: Plant response rating, Ragweed (ragweed; [3]) | Plant response rating, Ragweed (ragweed; [4]) | Plant response rating, Pigweed (pigweed; [3]) | Plant response rating, Pigweed (pigweed; [4]) | Pigweed plant response rating (0 to 100 scale, 0 is no effect, 100 is complete control) (pigweed; Postemergence, 500 g ai/ha) | Plant response rating, Pigweed (pigweed; [5]) | Plant response rating, Kochia (kochia; [3]) | Plant response rating, Kochia (kochia; [4]) | Plant response rating, Barnyardgrass (barnyardgrass [2]; [6]) | Plant response rating, Ryegrass, Italian (ryegrass, Italian; [3]) | Plant response rating, Ryegrass, Italian (ryegrass, Italian; [4]) | Ryegrass, Italian plant response rating (0 to 100 scale, 0 is no effect, 100 is complete control) (ryegrass, Italian; Postemergence, 500 g ai/ha) | Plant response rating, Rice (rice; [6]) | Plant response rating, Rice (rice; [7]) | Plant response rating, Rice (rice; 500 g ai/ha, scale 0 to 100) | Plant response rating, Rice (rice; 1000 g ai/ha, scale 0 to 100) | Plant response rating, Wheat (wheat; [8]) | Plant response rating, Ducksalad (ducksalad; [6]) | Plant response rating, Sedge, Umbrella (sedge, umbrella; [6]) | Plant response rating, Sedge, Umbrella (sedge, umbrella; [7]) | Plant response rating, Sedge, Umbrella (sedge, umbrella; 500 g ai/ha, scale 0 to 100) | Plant response rating, Sedge, Umbrella (sedge, umbrella; 1000 g ai/ha, scale 0 to 100) | Plant response rating, Corn (corn; [8])
30: Plant response rating, Ryegrass, Italian (ryegrass, Italian; [5])
15: Plant response rating, Barnyardgrass (barnyardgrass [2]; [7])
60: Plant response rating, Barnyardgrass (barnyardgrass [1]; [3]) | Plant response rating, Barnyardgrass (barnyardgrass [1]; [4]) | Galium plant response rating (0 to 100 scale, 0 is no effect, 100 is complete control) (galium; 500 g ai/ha) | Plant response rating, Foxtail, Giant (giant foxtail; [4]) | Blackgrass plant response rating (0 to 100 scale, 0 is no effect, 100 is complete control) (blackgrass; 500 g ai/ha)
65: Plant response rating, Barnyardgrass (barnyardgrass [2]; 1000 g ai/ha, scale 0 to 100)
90: Barnyardgrass plant response rating (0 to 100 scale, 0 is no effect, 100 is complete control) (barnyardgrass [1]; Postemergence, 500 g ai/ha) | Plant response rating, Barnyardgrass (barnyardgrass [1]; [5]) | Foxtail, Giant plant response rating (0 to 100 scale, 0 is no effect, 100 is complete control) (giant foxtail; Postemergence, 500 g ai/ha) | Plant response rating, Foxtail, Giant (giant foxtail; [5])
50: Plant response rating, Ragweed (ragweed; [5]) | Plant response rating, Galium (galium; [8]) | Corn plant response rating (0 to 100 scale, 0 is no effect, 100 is complete control) (corn; 500 g ai/ha)
20: Ragweed plant response rating (0 to 100 scale, 0 is no effect, 100 is complete control) (ragweed; Postemergence, 500 g ai/ha) | Kochia plant response rating (0 to 100 scale, 0 is no effect, 100 is complete control) (kochia; Postemergence, 500 g ai/ha) | Plant response rating, Kochia (kochia; [5])
100: Plant response rating, Ducksalad (ducksalad; 1000 g ai/ha, scale 0 to 100)
